Read-outs that look alike come from different tables or passages of the source. Values belong to the compound of their own block, whether it stands above or below them.
Legend:
[1] = 298.15 K, cited from earlier work
[2] = Protocol: Details of the technique are given in the literature. In brief: a flow of the inert gas (N2) through the tube transported the saturated vapor of the sample under investigation at a constant temperature and flow rate. The sample vapor is completely condensed at some point downstream. The sample vapor pressure at this temperature was calculated from the sublimated sample amount and the volume of the inert gas used. The mass of sublimated substance was determined using a spectrophotometer method by means of spectrophotometer Cary-50 (Varian, Australia).
The equipment was calibrated with benzoic acid, as specified in earlier work of our research group.
Absolute vapor pressures for compounds are usually approximated by the Clarke–Glew equation [38].
The value of the sublimation enthalpy is calculated by the Clausius–Clayperon equation:(7) ΔcrgHm0(T)=−R⋅(∂(lnp)/∂(1/T))
The sublimation entropy at a given temperature T is calculated by the following relation:(8) ΔcrgSm0(T)=(ΔcrgHm0(T)−ΔcrgGm0(T))/T with ΔcrgGm0(T)=−RTln(p/p0) , where p0 is the standard pressure (1 × 10^5 Pa).
For experimental reasons, the sublimation data are obtained at high temperatures. However, in comparison with the effusion methods, the temperatures are much lower, which makes extrapolation to room conditions easier.
Van der Waals molecular volumes ( V^vdw ) were estimated by the program GEPOL [50] using atom radiuses proposed by Kitaigorodskii. The free molecular volume in the crystal lattice was calculated on the basis of the single crystal X-ray diffraction data:(14) V^free=V^mol−V^vdw where V^mol is the molecular volume in crystal lattice, which is estimated by the equation:(15) V^mol=V^cell/Z where V^cell is the unit cell volume and Z is the number of molecules in the unit cell.

[3] = for solubility X2·10^5: p = 0.1 MPa, value is X2·10^5
Protocol: All the solubility experiments were carried out using the analytical isothermal shake-flask method. […] In brief, an excess amount of API was added to triplicate Pyrex glass tubes containing the respective dissolution media. […] The concentrations of the dissolved APIs were measured spectrophotometrically using a Cary 50 UV-vis spectrophotometer (Varian, Australia) with an accuracy of 2–4%.
Conversion of molarity to mole fraction concentration scale was produced using Equation (10):(10) X2=M2S2/S2(M2−M1)+1000ρ where S2 is molarity of API (mol·L^−1), M1 and M2 are the molar masses of solvent and solute, respectively, and ρ (g·cm^−3) is the density of the pure solvents. The mole fraction solubilities for buffer solutions were calculated taking into account the buffer compositions. Densities of buffer solutions (pH 2.0 and 7.4) were measured and published early.
The results are stated as the average of at least three replicated experiments.

[4] = for TΔSsol0 / ΔGsol0 / ΔHsol0 / ΔSsol0: dissolution; for ςHsolv: relative fraction of solvation enthalpy; for ςTSsolv: relative fraction of solvation entropy; for TΔSsolv0 / ΔGsolv0 / ΔHsolv0 / ΔSsolv0: solvation
Remark: listed apart in the source
[5] = ref Koradia et al. [34]; cited from earlier work
[6] = buffer pH 2.0, 298.15 K (Table 5)
[7] = buffer pH 7.4, 298.15 K (Table 5)

SMILES: O=C1CNC(=O)N1 [2,4-Imidazolidinedione]
Δgcr Hm0 (298.15) ([1]; ref [7]): 27.8 kcal/mol
ΔgcrGm0 (298.15) ([1]; ref [7]): 13.8 kcal/mol

SMILES: O=C1CNC(=S)N1 [2-Thiohydantoin]
Δgcr Hm0 (298.15) ([1]; ref [7]): 28.47 kcal/mol
ΔgcrGm0 (298.15) ([1]; ref [7]): 14.4 kcal/mol

SMILES: O=C1NCCN1 [2-imadazolidinone]
Δgcr Hm0 (298.15) ([1]; ref [5]): 20 kcal/mol
ΔgcrGm0 (298.15) ([1]; ref [5]): 10.2 kcal/mol

SMILES: O=Cc1ccc(-c2ccc([N+](=O)[O-])cc2)o1 [5-(4-nitrophenyl)-furan-2-carbaldehyde]
Δgcr Hm0 (298.15) ([1]; ref [8]): 32.48 kcal/mol
ΔgcrGm0 (298.15) ([1]; ref [8]): 15.6 kcal/mol

298.15⋅ΔcrgSm0(298.15K) ([2]; 298.15 K): 14.7 kcal/mol
ΔcrgGm0(298.15), sublimation Gibbs energy ([2]; 298.15 K): 20.4 kcal/mol
ΔcrgHm0(298.15K), sublimation enthalpy ([2]; 298.15 K): 35.01 ± 0.17 kcal/mol
ΔcrgSm0(298.15K), sublimation entropy ([2]; 298.15 K): 205.5 ± 2.8 J·mol^−1·K^−1
ΔcrgHm0(T), sublimation enthalpy ([2]; at experimental temperature T): 33.44 ± 0.17 kcal/mol
ςH ([2]; enthalpy term of sublimation, 298.15 K): 70.5%
ςTS ([2]; entropy term of sublimation, 298.15 K): 29.5%
p(298.15K), saturated vapor pressure ([2]; extrapolated to 298.15 K): 1.19·10^−10 Pa
β = V^free/V^vdw ([2]; free volume in the crystal lattice over van der Waals volume): 36.3%
X2 (solubility) ([3]; 1-octanol, 298.15 K (Table 5)): 3.61·10^5 mol.frac.
solubility X2·10^5 ([3]; 1-octanol, 298.15 K): 3.61 mol. frac.
solubility X2·10^5 ([3]; 1-octanol, 303.15 K): 4.97 mol. frac.
solubility X2·10^5 ([3]; 1-octanol, 308.15 K): 6.53 mol. frac.
solubility X2·10^5 ([3]; 1-octanol, 313.15 K): 8.26 mol. frac.
X2 (solubility) [3, 6]: 1.49·10^5 mol.frac.
solubility X2·10^5 ([3]; buffer pH 2.0, 298.15 K): 1.49 mol. frac.
solubility X2·10^5 ([3]; buffer pH 2.0, 303.15 K): 1.82 mol. frac.
solubility X2·10^5 ([3]; buffer pH 2.0, 308.15 K): 2.26 mol. frac.
solubility X2·10^5 ([3]; buffer pH 2.0, 313.15 K): 2.46 mol. frac.
X2 (solubility) [3, 7]: 3.28·10^5 mol.frac.
solubility X2·10^5 ([3]; buffer pH 7.4, 298.15 K): 3.28 mol. frac.
solubility X2·10^5 ([3]; buffer pH 7.4, 303.15 K): 4.33 mol. frac.
solubility X2·10^5 ([3]; buffer pH 7.4, 308.15 K): 5.51 mol. frac.
solubility X2·10^5 ([3]; buffer pH 7.4, 313.15 K): 6.72 mol. frac.
TΔSsol0 ([4]; 1-octanol, 298.15 K): 4.18 kcal/mol
ΔGsol0 ([4]; 1-octanol, 298.15 K): 6.07 kcal/mol
ΔHsol0 ([4]; 1-octanol, 298.15 K): 10.2 ± 0.406 kcal/mol
ΔSsol0 ([4]; 1-octanol, 298.15 K): 58.5 ± 2.5 J·K^−1·mol^−1
TΔSsol0 ([4]; buffer pH 2.0, 298.15 K): -0.22 kcal/mol
ΔGsol0 ([4]; buffer pH 2.0, 298.15 K): 6.57 kcal/mol
ΔHsol0 ([4]; buffer pH 2.0, 298.15 K): 6.36 ± 0.669 kcal/mol
ΔSsol0 ([4]; buffer pH 2.0, 298.15 K): −3.1 ± 3.7 J·K^−1·mol^−1
TΔSsol0 ([4]; buffer pH 7.4, 298.15 K): 2.84 kcal/mol
ΔGsol0 ([4]; buffer pH 7.4, 298.15 K): 6.12 kcal/mol
ΔHsol0 ([4]; buffer pH 7.4, 298.15 K): 8.96 ± 0.454 kcal/mol
ΔSsol0 ([4]; buffer pH 7.4, 298.15 K): 39.9 ± 2.7 J·K^−1·mol^−1
ςHsolv ([4]; 1-octanol, 298.15 K): 70.3%
ςHsolv ([4]; buffer pH 2.0, 298.15 K): 65.8%
ςHsolv ([4]; buffer pH 7.4, 298.15 K): 68.8%
ςTSsolv ([4]; 1-octanol, 298.15 K): 29.7%
ςTSsolv ([4]; buffer pH 2.0, 298.15 K): 34.2%
ςTSsolv ([4]; buffer pH 7.4, 298.15 K): 31.2%
TΔSsolv0 ([4]; 1-octanol, 298.15 K): -10.5 kcal/mol
ΔGsolv0 ([4]; 1-octanol, 298.15 K): -14.3 kcal/mol
ΔHsolv0 ([4]; 1-octanol, 298.15 K): -24.78 kcal/mol
ΔSsolv0 ([4]; 1-octanol, 298.15 K): −147.0 J·K^−1·mol^−1
TΔSsolv0 ([4]; buffer pH 2.0, 298.15 K): -14.9 kcal/mol
ΔGsolv0 ([4]; buffer pH 2.0, 298.15 K): -13.8 kcal/mol
ΔHsolv0 ([4]; buffer pH 2.0, 298.15 K): -28.66 kcal/mol
ΔSsolv0 ([4]; buffer pH 2.0, 298.15 K): −208.6 J·K^−1·mol^−1
TΔSsolv0 ([4]; buffer pH 7.4, 298.15 K): -11.8 kcal/mol
ΔGsolv0 ([4]; buffer pH 7.4, 298.15 K): -14.2 kcal/mol
ΔHsolv0 ([4]; buffer pH 7.4, 298.15 K): -26.05 kcal/mol
ΔSsolv0 ([4]; buffer pH 7.4, 298.15 K): −165.6 J·K^−1·mol^−1
SMILES: O=C1CN(/N=C/c2ccc([N+](=O)[O-])o2)C(=O)N1 [NFT, nitrofurantoin]

SMILES: O=C1CCC(=O)N1 [Succinimide]
Δgcr Hm0 (298.15) ([1]; ref [6]): 20 kcal/mol
ΔgcrGm0 (298.15) ([1]; ref [6]): 8.77 kcal/mol

difference between equilibrium solubility of the monohydrate and solubility of anhydrous NFT ([3]; 313.15 K): ≤ 15%
X2 (solubility) [3, 6]: 0.73·10^5 mol.frac.
solubility X2·10^5 ([3]; buffer pH 2.0, 298.15 K): 0.73 mol. frac.
solubility X2·10^5 ([3]; buffer pH 2.0, 303.15 K): 1.07 mol. frac.
solubility X2·10^5 ([3]; buffer pH 2.0, 308.15 K): 1.43 mol. frac.
solubility X2·10^5 ([3]; buffer pH 2.0, 313.15 K): 1.96 mol. frac.
X2 (solubility) [3, 7]: 1.98·10^5 mol.frac.
solubility X2·10^5 ([3]; buffer pH 7.4, 303.15 K): 2.34 mol. frac.
solubility X2·10^5 ([3]; buffer pH 7.4, 308.15 K): 3.83 mol. frac.
solubility X2·10^5 ([3]; buffer pH 7.4, 313.15 K): 5.90 mol. frac.
TΔSsol0 ([4]; buffer pH 2.0, 298.15 K): 5.04 kcal/mol
ΔGsol0 ([4]; buffer pH 2.0, 298.15 K): 7 kcal/mol
ΔHsol0 ([4]; buffer pH 2.0, 298.15 K): 12.1 ± 0.406 kcal/mol
ΔSsol0 ([4]; buffer pH 2.0, 298.15 K): 70.9 ± 2.6 J·K^−1·mol^−1
TΔSsol0 ([4]; buffer pH 7.4, 298.15 K): 10.6 kcal/mol
ΔGsol0 ([4]; buffer pH 7.4, 298.15 K): 6.41 kcal/mol
ΔHsol0 ([4]; buffer pH 7.4, 298.15 K): 17.2 ± 0.287 kcal/mol
ΔSsol0 ([4]; buffer pH 7.4, 298.15 K): 148.5 ± 2.0 J·K^−1·mol^−1
ΔHw, vaporization enthalpy of water from the crystal (from DSC and TG, Equation (4)): 14.4 kcal/mol
sublimation enthalpy computed using Equation (5) (thermodynamic cycle: sublimation enthalpy of NFT + ΔHw): 47.85 kcal/mol
SMILES: O.O=C1CN(/N=C/c2ccc([N+](=O)[O-])o2)C(=O)N1 [[NFT + H2O], nitrofurantoin monohydrate]
activation energy of dehydration process [5]: 46.8 to 47.1 kcal/mol
